For this assay, the system named is L1210 leukemia ip in BDF1 mice, survival T/C. In words: NCI In Vivo Anticancer Drug Screen. Data for tumor model L1210 Leukemia (intraperitoneal) in B6D2F1 (BDF1) mice. Conditions: endpoint: mean survival time, higher = longer survival. The procedure, abridged: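 Value reflects the ratio of survival in compound-treated mice to survival in vehicle-treated controls, with both groups carrying the same transplanted tumor.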

Where [1] appears, read: dose: 100.0 mg/kg/injection, schedule: Q04DX002 (ip), vehicle: saline.
Where [2] appears, read: dose: 200.0 mg/kg/injection, schedule: Q04DX002 (ip), vehicle: saline.
[3] abbreviates: dose: 100.0 mg/kg/injection, schedule: Q04DX003 (ip), vehicle: saline.
[4] abbreviates: dose: 200.0 mg/kg/injection, schedule: Q04DX003 (ip), vehicle: saline.
[5] abbreviates: dose: 400.0 mg/kg/injection, schedule: Q04DX003 (ip), vehicle: saline.
[6] abbreviates: dose: 100.0 mg/kg/injection, schedule: Q01DX001 (ip), vehicle: saline.
Setting [7] is: dose: 200.0 mg/kg/injection, schedule: Q01DX001 (ip), vehicle: saline.
[8] abbreviates: dose: 100.0 mg/kg/injection, schedule: Q01DX009 (ip), vehicle: saline.
The mark [9] stands for this setting: dose: 400.0 mg/kg/injection, schedule: Q01DX001 (ip), vehicle: saline.

Where “and” joins values, the source holds several entries; their conditions need not be identical. Equal values may be shown once. Toxic doses and inconclusive results are not listed.

As for `COc1cc(C(=O)Nc2ccc(C3=NCCN3)cc2)cc(C(=O)Nc2ccc(C3=NCCN3)cc2)c1`, the T/C by setting is: (dose: 30.0 mg/kg/injection, schedule: Q01DX Z (ip), vehicle: saline) 211 % of control; (dose: 60.0 mg/kg/injection, schedule: Q01DX Z (ip), vehicle: saline) 275 % of control; (dose: 60.0 mg/kg/injection, schedule: Q01DX Z (oral), vehicle: saline) 114 % of control; (dose: 120.0 mg/kg/injection, schedule: Q01DX Z (ip), vehicle: saline) 151 % of control; (dose: 120.0 mg/kg/injection, schedule: Q01DX Z (oral), vehicle: saline) 119 % of control; (dose: 240.0 mg/kg/injection, schedule: Q01DX Z (oral), vehicle: saline) 101 % of control. The T/C (dose: 480.0 mg/kg/injection, schedule: Q01DX Z (oral), vehicle: saline) was 100 % of control.

As for `O=C(CN1CCOCC1)Nc1ccc(S(=O)(=O)c2ccc([N+](=O)[O-])cc2)cc1`, the T/C by setting is: (dose: 75.0 mg/kg/injection, schedule: Q01DX001 (ip), vehicle: acetone) 93 % of control; (dose: 150.0 mg/kg/injection, schedule: Q01DX001 (ip), vehicle: acetone) 93 % of control.

With `CCN(CC)Cc1ccc([N+](=O)[O-])cc1`, the T/C by setting is: under setting [1], 110 % of control; under setting [2], 104 % of control.

Consider `CCN(CC)CC(C)OC(=O)c1ccc(N)cc1` (stereo not given), for which the T/C is 103 % of control under setting [3] and 101 % of control under setting [4].

As for `CCC(=O)c1c(C)c(C)cc2ccccc12`, the T/C runs as follows: (dose: 100.0 mg/kg/injection, schedule: Q01DX009 (ip), vehicle: other) 97 % of control; (dose: 200.0 mg/kg/injection, schedule: Q01DX009 (ip), vehicle: other) 95 % of control; (dose: 400.0 mg/kg/injection, schedule: Q01DX009 (ip), vehicle: other) 108 % of control.

For the compound `CSc1ncnc2c1ncn2C1OC(CCc2ccccc2)C(O)C1O` (stereo not given), the T/C by setting is: (dose: 100.0 mg/kg/injection, schedule: Q01DX001 (ip), vehicle: Klucel (hydroxypropylcellulose) (HPC)) 100 % of control; (dose: 200.0 mg/kg/injection, schedule: Q01DX001 (ip), vehicle: Klucel (hydroxypropylcellulose) (HPC)) 96 % of control; (dose: 400.0 mg/kg/injection, schedule: Q01DX001 (ip), vehicle: Klucel (hydroxypropylcellulose) (HPC)) 98 % of control.

As to `COc1ccc([N+](=O)[O-])cc1NC(=O)CCCCCCCCC(=O)Nc1cc([N+](=O)[O-])ccc1OC`, the T/C is 102 % of control under setting [1]; 102 % of control under setting [2]; 109 % of control (dose: 400.0 mg/kg/injection, schedule: Q04DX002 (ip), vehicle: saline).

Consider `O=P(CCC(F)(F)C(F)(F)C(F)(F)C(F)(F)C(F)(F)C(F)(F)C(F)(F)F)(N1CC1)N1CC1`, for which the T/C (dose: 75.0 mg/kg/injection, schedule: Q01DX001 (ip), vehicle: carboxymethylcellulose (CMC)) is 108 % of control.

In the case of `O=C(NN1CCOCC1)c1ccc([N+](=O)[O-])s1`, the T/C runs as follows: (dose: 50.0 mg/kg/injection, schedule: Q01DX005 (ip), vehicle: saline) 98 % of control; (dose: 100.0 mg/kg/injection, schedule: Q01DX005 (ip), vehicle: saline) 102 % of control; (dose: 200.0 mg/kg/injection, schedule: Q01DX005 (ip), vehicle: saline) 98 % of control.

For the compound `O=C1NC(=O)C([N+](=O)[O-])C(=O)N1`, the T/C is 104 % of control (dose: 12.5 mg/kg/injection, schedule: Q04DX003 (ip), vehicle: saline); 95 % of control (dose: 25.0 mg/kg/injection, schedule: Q04DX003 (ip), vehicle: saline); 93 % of control (dose: 50.0 mg/kg/injection, schedule: Q04DX003 (ip), vehicle: saline); 98 % of control under setting [4]; 91 % of control under setting [5].

As for `Cc1c(Cl)ccc2c1S(=O)(=O)c1cccc(Cl)c1-2`, the T/C was 104 % of control (dose: 100.0 mg/kg/injection, schedule: Q04DX002 (ip), vehicle: Klucel (hydroxypropylcellulose) (HPC)); 96 % of control (dose: 200.0 mg/kg/injection, schedule: Q04DX002 (ip), vehicle: Klucel (hydroxypropylcellulose) (HPC)); 100 % of control (dose: 400.0 mg/kg/injection, schedule: Q04DX002 (ip), vehicle: Klucel (hydroxypropylcellulose) (HPC)).

Turning to `O=C(O)c1ccc(Br)s1`, the T/C was 97 % of control under setting [6] and 99 % of control under setting [7].

Regarding `C/C(=N\N=C(N)N)c1ccccc1`, the T/C (dose: 15.0 mg/kg/injection, schedule: Q01DX Z (oral), vehicle: carboxymethylcellulose (CMC)) is 102 % of control and the T/C (dose: 30.0 mg/kg/injection, schedule: Q01DX Z (oral), vehicle: carboxymethylcellulose (CMC)) is 97 % of control.

`O=C(Nc1ccc(N=Nc2ccccc2)cc1)C1CC1`: the T/C runs as follows: (dose: 100.0 mg/kg/injection, schedule: Q01DX009 (ip), vehicle: Klucel (hydroxypropylcellulose) (HPC)) 101 % of control; (dose: 200.0 mg/kg/injection, schedule: Q01DX009 (ip), vehicle: Klucel (hydroxypropylcellulose) (HPC)) 100 % of control; (dose: 400.0 mg/kg/injection, schedule: Q01DX009 (ip), vehicle: Klucel (hydroxypropylcellulose) (HPC)) 94 % of control.

As for `NC1=NNC(N)=NN1`, the T/C (dose: 12.5 mg/kg/injection, schedule: Q01DX009 (ip), vehicle: saline) is 93 % of control; the T/C (dose: 25.0 mg/kg/injection, schedule: Q01DX009 (ip), vehicle: saline) is 101 % of control; the T/C (dose: 50.0 mg/kg/injection, schedule: Q01DX009 (ip), vehicle: saline) was 100 % of control and 107 % of control; the T/C under setting [8] was 92 % of control.

As to `CC(=O)CC(=O)c1cc(C(C)=O)c(O)c(C(C)=O)c1`, the T/C was 101 % of control (dose: 50.0 mg/kg/injection, schedule: Q04DX003 (ip), vehicle: Klucel (hydroxypropylcellulose) (HPC)); 108 % of control (dose: 100.0 mg/kg/injection, schedule: Q04DX003 (ip), vehicle: Klucel (hydroxypropylcellulose) (HPC)); 103 % of control (dose: 200.0 mg/kg/injection, schedule: Q04DX003 (ip), vehicle: Klucel (hydroxypropylcellulose) (HPC)); 101 % of control (dose: 400.0 mg/kg/injection, schedule: Q04DX003 (ip), vehicle: Klucel (hydroxypropylcellulose) (HPC)).

For the compound `CC(C)(CBr)CC(=O)NC1CCCCC1`, the T/C is 98 % of control (dose: 50.0 mg/kg/injection, schedule: Q01DX001 (ip), vehicle: saline); 98 % of control under setting [6]; 96 % of control under setting [7]; 104 % of control under setting [9].

As to `Nc1ccc2cc(S(=O)(=O)O)ccc2c1`, the T/C is, setting by setting: under setting [3], 96 % of control; under setting [4], 94 % of control; under setting [5], 94 % of control.

`O=S(=O)(Cc1ccccc1)C1CCCC1`: the T/C by setting is: under setting [6], 104 % of control; under setting [8], 96 % of control; (dose: 100.0 mg/kg/injection, schedule: Q04DX003 (ip), vehicle: acetone) 103 % of control; under setting [7], 104 % of control; (dose: 200.0 mg/kg/injection, schedule: Q01DX009 (ip), vehicle: saline) 110 % of control; (dose: 200.0 mg/kg/injection, schedule: Q04DX003 (ip), vehicle: acetone) 97 % of control. In addition, the T/C under setting [9] is 93 % of control; the T/C (dose: 400.0 mg/kg/injection, schedule: Q01DX009 (ip), vehicle: saline) was 113 % of control; the T/C (dose: 400.0 mg/kg/injection, schedule: Q04DX003 (ip), vehicle: acetone) is 102 % of control.

For `Clc1ccc(C#[C][Hg][C]#Cc2ccc(Cl)cc2)cc1`, the T/C reads like this: (dose: 50.0 mg/kg/injection, schedule: Q01DX009 (ip), vehicle: saline with Tween-80) 109 % of control; (dose: 100.0 mg/kg/injection, schedule: Q01DX009 (ip), vehicle: saline with Tween-80) 95 % of control; (dose: 200.0 mg/kg/injection, schedule: Q01DX009 (ip), vehicle: saline with Tween-80) 92 % of control.

On to `O=C(O)CC1CCCCC1NC(=O)c1ccccc1` (stereo not given), for which the T/C reads like this: (dose: 100.0 mg/kg/injection, schedule: Q01DX001 (ip), vehicle: saline with Tween-80) 100 % of control; (dose: 200.0 mg/kg/injection, schedule: Q01DX001 (ip), vehicle: saline with Tween-80) 94 % of control; (dose: 400.0 mg/kg/injection, schedule: Q01DX001 (ip), vehicle: saline with Tween-80) 95 % of control.

With `CC1(C)C2CCC1(CS(=O)(=O)O)C(=O)C2Br.[Ag]` (stereo not given), the T/C (dose: 1.56 mg/kg/injection, schedule: Q01DX009 (ip), vehicle: saline) was 101 % of control; the T/C (dose: 3.12 mg/kg/injection, schedule: Q01DX009 (ip), vehicle: saline) is 108 % of control; the T/C (dose: 6.25 mg/kg/injection, schedule: Q01DX009 (ip), vehicle: saline) was 90 % of control; the T/C (dose: 12.5 mg/kg/injection, schedule: Q01DX009 (ip), vehicle: saline with Tween-80) was 93 % of control.

Source of the values: PubChem BioAssay AID248 (DTP/NCI, 2004).
